The test system of series [1] is Pseudomonas aeruginosa. Kind of series: In vitro antibacterial activity against Pseudomonas aeruginosa (A 9843). Format: functional. The following applies: Pseudomonas aeruginosa; read-out: MIC.
For series [2], the system named is Staphylococcus aureus. Kind of series: In vitro antibacterial activity against Staphylococcus aureus Smith (A9537). Format: functional. The note with it: Staphylococcus aureus; read-out: MIC.
The subject of series [3] is Staphylococcus aureus. Kind of series: In vivo efficacy in systemic infection due to Staphylococcus aureus Smith (A 9537) in mice. The series is classed as functional. The note with it: read-out: PD50.
Series [4] is described as follows: Half-life in plasma after oral administration in dog (25 mg/kg). Format: ADME, organism-based, Canis lupus familiaris.
The next series relates to Morganella morganii. Kind of series: In vitro antibacterial activity against Morganella morganii (A 15153). The series is classed as functional. The note with it: Morganella morganii; read-out: MIC.
The subject of a further series is Klebsiella pneumoniae. Briefly: In vitro antibacterial activity against Klebsiella pneumoniae (A 9664). The series is classed as functional. The following applies: Klebsiella pneumoniae; read-out: MIC.
The test system of series [5] is Pseudomonas aeruginosa. Briefly: In vivo efficacy in systemic infection due to Pseudomonas aeruginosa (A 9843) in mice. Format: functional. The following applies: read-out: PD50.
A short description of series [6]: Maximum concentration in plasma after oral administration in dog (25 mg/kg). The series is classed as ADME, organism-based, Canis lupus familiaris. Also noted: dose 25 mg/kg, route oral.
Series [7] in a line: Urinary recovery after 24 hr in plasma after oral administration in dog (25 mg/kg). The following applies: urine, read-out: UR. Format: ADME, organism-based, Canis lupus familiaris.
The next series has as its system Enterobacter cloacae. Briefly: In vitro antibacterial activity against Enterobacter cloacae (A 9656). Format: functional. The following applies: Enterobacter cloacae; read-out: MIC.
Another series relates to Escherichia coli. Briefly: In vitro antibacterial activity against Escherichia coli (A 15119). The series is classed as functional. The note with it: Escherichia coli; read-out: MIC.
A short description of series [8]: Lethal dose of compound in OF1-strain female swiss mice after oral administration. The note with it: mouse, in vivo. The series is classed as toxicity, organism-based.
The test system of the next series is Canis familiaris. Briefly: Area under the concentration/ time in plasma after oral administration in dog (25 mg/kg). The following applies: in vivo. Format: ADME, organism-based, Canis lupus familiaris.

≈ marks a conversion by molar mass, not a printed value.

In general, MIC refers to the least concentration at which growth counts as inhibited. The half-life is the time needed for the level to fall by half in the phase considered. The low end stands for fast loss, the high end for slow loss. The term Cmax denotes the maximum level reached in the sampled fluid or tissue. For orientation: LD50 means the dose expected to kill half of the subjects tested.

Regarding `CC(C)(C)n1cc(C(=O)O)c(=O)c2cc(F)c(N3CCNCC3)cc21`, the MIC in the series on Pseudomonas aeruginosa [1] was 0.5 µg/mL (≈ 1.44 µM); in the series with Staphylococcus aureus [2], 0.06 µg/mL (≈ 0.173 µM); in the series with Morganella morganii, 0.25 µg/mL (≈ 0.72 µM); in the series with Klebsiella pneumoniae it was 0.13 µg/mL (≈ 0.374 µM); with Enterobacter cloacae, 0.13 µg/mL (≈ 0.374 µM); with Escherichia coli, 0.06 µg/mL (≈ 0.173 µM). Moreover, the ED50 in the series on Staphylococcus aureus [3] came out at 8 mg/kg; in the series with Pseudomonas aeruginosa [5], 18 mg/kg. Further, in series [4], the half-life is 4.4 h. Further, the peak level in series [6] (Cmax) was 6400 ng/mL. For the same compound, the dose excreted at 24 h in [7] came to 17%. In [8], this compound yielded an LD50 greater than 2500 mg/kg. In addition, the AUC in the series with Canis familiaris came to 50 µg/mL.
`CC1(C)CC1n1cc(C(=O)O)c(=O)c2cc(F)c(N3CCNCC3)cc21` (configuration not stated): the MIC with Pseudomonas aeruginosa [1] was determined as 32 µg/mL (≈ 89 µM); in the series with Staphylococcus aureus [2], 1 µg/mL (≈ 2.78 µM); in the series on Morganella morganii, 8 µg/mL (≈ 22.3 µM); in the series on Klebsiella pneumoniae, 2 µg/mL (≈ 5.56 µM); with Enterobacter cloacae it was 4 µg/mL (≈ 11.1 µM); in the series on Escherichia coli it was 1 µg/mL (≈ 2.78 µM).
Regarding `C=C(C)n1cc(C(=O)O)c(=O)c2cc(F)c(N3CCNCC3)cc21`, the MIC in the series with Pseudomonas aeruginosa [1] was 0.5 µg/mL (≈ 1.51 µM); in the series with Staphylococcus aureus [2], 0.5 µg/mL (≈ 1.51 µM); in the series with Morganella morganii, 0.13 µg/mL (≈ 0.392 µM); with Klebsiella pneumoniae it was 0.25 µg/mL (≈ 0.754 µM); with Enterobacter cloacae, 0.06 µg/mL (≈ 0.181 µM); in the series on Escherichia coli, 0.13 µg/mL (≈ 0.392 µM).
For the compound `CCC(C)(C)n1cc(C(=O)O)c(=O)c2cc(F)c(N3CCNCC3)cc21`, the MIC in the series on Pseudomonas aeruginosa [1] amounted to 4 µg/mL (≈ 11.1 µM); with Staphylococcus aureus [2] it was 0.25 µg/mL (≈ 0.692 µM); in the series on Morganella morganii, 4 µg/mL (≈ 11.1 µM); in the series on Klebsiella pneumoniae it was 1 µg/mL (≈ 2.77 µM); in the series on Enterobacter cloacae, 1 µg/mL (≈ 2.77 µM); in the series on Escherichia coli, 0.5 µg/mL (≈ 1.38 µM).
In the case of `CC1(n2cc(C(=O)O)c(=O)c3cc(F)c(N4CCNCC4)cc32)CCC1`, the MIC with Pseudomonas aeruginosa [1] stood at 8 µg/mL (≈ 22.3 µM); in the series with Staphylococcus aureus [2], 0.5 µg/mL (≈ 1.39 µM); in the series with Morganella morganii, 0.5 µg/mL (≈ 1.39 µM); with Klebsiella pneumoniae it was 2 µg/mL (≈ 5.56 µM); with Enterobacter cloacae it was 1 µg/mL (≈ 2.78 µM); in the series with Escherichia coli, 0.25 µg/mL (≈ 0.696 µM).
As for `O=C(O)c1cn(C2CC=CC2)c2cc(N3CCNCC3)c(F)cc2c1=O`, the MIC came to 8 µg/mL (≈ 22.4 µM) in the series with Pseudomonas aeruginosa [1]; 2 µg/mL (≈ 5.6 µM) in the series with Staphylococcus aureus [2]; 8 µg/mL (≈ 22.4 µM) with Morganella morganii; 1 µg/mL (≈ 2.8 µM) in the series on Klebsiella pneumoniae; 8 µg/mL (≈ 22.4 µM) in the series with Enterobacter cloacae; 1 µg/mL (≈ 2.8 µM) in the series with Escherichia coli.
As to `C=C(C)n1cc(C(=O)O)c(=O)c2cc(F)c(N3CCNCC3)nc21`, the MIC with Pseudomonas aeruginosa [1] came to 2 µg/mL (≈ 6.02 µM); with Staphylococcus aureus [2], 0.5 µg/mL (≈ 1.5 µM); in the series on Morganella morganii it was 0.5 µg/mL (≈ 1.5 µM); in the series with Klebsiella pneumoniae it was 0.13 µg/mL (≈ 0.391 µM); in the series on Enterobacter cloacae, 0.25 µg/mL (≈ 0.752 µM); in the series with Escherichia coli it was 0.13 µg/mL (≈ 0.391 µM). The ED50 stood at 15 mg/kg in the series with Staphylococcus aureus [3] and 20 mg/kg in the series with Pseudomonas aeruginosa [5].
On to `CC1CCC1n1cc(C(=O)O)c(=O)c2cc(F)c(N3CCNCC3)cc21` (configuration not stated), for which the MIC in the series with Pseudomonas aeruginosa [1] was determined as 32 µg/mL (≈ 89 µM); with Staphylococcus aureus [2] it was 4 µg/mL (≈ 11.1 µM); with Morganella morganii it was 16 µg/mL (≈ 44.5 µM); with Klebsiella pneumoniae it was 4 µg/mL (≈ 11.1 µM); in the series with Enterobacter cloacae, 32 µg/mL (≈ 89 µM); with Escherichia coli, 2 µg/mL (≈ 5.56 µM).
On to `O=C(O)c1cn(C2CCC2)c2cc(N3CCNCC3)c(F)cc2c1=O`, for which the MIC in the series with Pseudomonas aeruginosa [1] is 1 µg/mL (≈ 2.9 µM); in the series with Staphylococcus aureus [2] it was 0.5 µg/mL (≈ 1.45 µM); with Morganella morganii, 0.5 µg/mL (≈ 1.45 µM); in the series with Klebsiella pneumoniae it was 0.13 µg/mL (≈ 0.376 µM); with Enterobacter cloacae it was 1 µg/mL (≈ 2.9 µM); with Escherichia coli it was 0.13 µg/mL (≈ 0.376 µM).
On to `O=C(O)c1cn(C2CC2)c2c(F)c(N3CCNCC3)c(F)cc2c1=O`, for which the MIC was 0.25 µg/mL (≈ 0.716 µM) in the series with Pseudomonas aeruginosa [1]; 0.13 µg/mL (≈ 0.372 µM) with Staphylococcus aureus [2]; 0.008 µg/mL (≈ 0.0229 µM) with Morganella morganii; 0.06 µg/mL (≈ 0.172 µM) with Klebsiella pneumoniae; 0.06 µg/mL (≈ 0.172 µM) with Enterobacter cloacae; 0.03 µg/mL (≈ 0.0859 µM) in the series on Escherichia coli.
Take `CC(C)n1cc(C(=O)O)c(=O)c2cc(F)c(N3CCNCC3)cc21`: the MIC was determined as 1 µg/mL (≈ 3 µM) with Pseudomonas aeruginosa [1]; 1 µg/mL (≈ 3 µM) in the series with Staphylococcus aureus [2]; 0.25 µg/mL (≈ 0.75 µM) in the series on Morganella morganii; 1 µg/mL (≈ 3 µM) in the series on Klebsiella pneumoniae; 2 µg/mL (≈ 6 µM) in the series on Enterobacter cloacae; 0.5 µg/mL (≈ 1.5 µM) with Escherichia coli.
Regarding `O=C(O)c1cn(Cc2ccccc2)c2cc(N3CCNCC3)c(F)cc2c1=O`, the MIC was found to be 0.5 µg/mL (≈ 1.31 µM) in the series with Pseudomonas aeruginosa [1]; 0.5 µg/mL (≈ 1.31 µM) with Staphylococcus aureus [2]; 4 µg/mL (≈ 10.5 µM) in the series with Morganella morganii; 0.5 µg/mL (≈ 1.31 µM) in the series on Klebsiella pneumoniae; 0.5 µg/mL (≈ 1.31 µM) with Enterobacter cloacae; 0.25 µg/mL (≈ 0.655 µM) in the series on Escherichia coli.
As for `CC1(n2cc(C(=O)O)c(=O)c3cc(F)c(N4CCNCC4)cc32)CC1`, the minimum inhibitory concentration (MIC) in the series with Pseudomonas aeruginosa [1] came to 0.5 µg/mL (≈ 1.45 µM); in the series on Staphylococcus aureus [2], 0.25 µg/mL (≈ 0.724 µM); in the series with Morganella morganii, 0.25 µg/mL (≈ 0.724 µM); with Klebsiella pneumoniae it was 0.25 µg/mL (≈ 0.724 µM); with Enterobacter cloacae, 0.5 µg/mL (≈ 1.45 µM); in the series on Escherichia coli, 0.06 µg/mL (≈ 0.174 µM).

The values are drawn from ChEMBL document CHEMBL1124630, “Fluoronaphthyridines and quinolones as antibacterial agents. 1. Synthesis and structure-activity relationships of new 1-substituted derivatives” (J Med Chem, 1989).
